Test results: paper PMC9731865, “Gambogic acid and juglone inhibit RNase P through distinct mechanisms” (The Journal of Biological Chemistry, 2022)

Molecular target: T1, PRORP1 C353A/C373A (Arabidopsis thaliana, UniProt Q66GI4, C353A/C373A)
T1 construct: made in house
Test: Time-dependent inactivation by juglone, PRORP1 C353A/C373A
Format: biochemical, A. thaliana
Description: Given the multiple sites of cysteine modification, we wanted to identify the one(s) that potentially play a significant role in PRORP1 inactivation. Therefore, several cysteine-to-alanine point mutants were expressed, purified, and subjected to inhibition studies. We tested both single-site (C353A and C373A) and double-site (C353A/C373A and C222A/C353A) mutations. […] The value of kinact,app for each PRORP1 at varied concentrations of juglone was determined by fitting a single exponential equation (Equation 5) to the data (Fig. 10A). Unexpectedly, the values of kinact/KI (reflecting the inhibition of E + I to form EI∗) increased for a number of the PRORP1 variants: wildtype (0.001 ± 0.00004 μM^-1 min^-1), C353A (0.005 ± 0.002 μM^−1 min^−1), C373A (0.002 ± 0.0004 μM^-1 min^−1), C222A/C353A (0.003 ± 0.0001 μM^−1 min^−1), and C353A/C373A (0.0008 ± 0.0002 μM^-1 min^−1). These modest increases could be due to a decrease in the KI value or an increase in the value of kinact. […] Although, we cannot discount the possibility, however unlikely, that juglone may employ a mode of inhibition beyond cysteine residue modification that our crystal structures fail to capture.
Figure 10 Effects of PRORP1 cysteine mutations on juglone inactivation. […]
For the analysis of juglone, PRORP1 activity was measured with varying preincubation time and juglone concentration. […]

T1 sequence (Q66GI4 77-572 C353A/C373A): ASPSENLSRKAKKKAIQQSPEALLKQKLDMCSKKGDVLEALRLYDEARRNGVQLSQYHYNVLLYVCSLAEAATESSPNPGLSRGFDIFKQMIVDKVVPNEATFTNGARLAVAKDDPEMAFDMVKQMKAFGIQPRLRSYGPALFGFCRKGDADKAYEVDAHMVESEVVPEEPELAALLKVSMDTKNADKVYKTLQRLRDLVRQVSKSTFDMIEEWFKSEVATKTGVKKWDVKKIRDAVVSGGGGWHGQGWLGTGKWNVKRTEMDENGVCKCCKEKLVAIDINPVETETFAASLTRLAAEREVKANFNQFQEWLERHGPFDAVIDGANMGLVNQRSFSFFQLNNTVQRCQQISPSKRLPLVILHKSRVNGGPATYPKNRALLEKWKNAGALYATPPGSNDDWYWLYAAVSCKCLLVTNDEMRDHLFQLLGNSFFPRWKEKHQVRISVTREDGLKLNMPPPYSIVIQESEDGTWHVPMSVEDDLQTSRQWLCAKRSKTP

O=C1C=CC(=O)c2c(O)cccc21 [juglone, 5-hydroxy-1,4-naphthalenedione]
kinact/KI: 13.3 M⁻¹ s⁻¹ | inhibition at time 0 (double-cysteine mutation (C353A/C373A)): not observed
